Reference: patent US20080161188A1, “HERBICIDAL COMPOSITIONS AND METHODS OF CONTROLLING WEED GROWTH” (priority 2006, published 2008)

System: turf (perennial rye grass, fescue, crabgrass, and several unidentified broad-leaf weeds)
Assay: Field test plots: rate of control of turf by ready to use glyphosate composition with fatty acid additive
Assay type: in vivo
Details: versus the same compositions without (water control) short chain fatty acid
Protocol: This composition included all of the water necessary to apply for weed control and was not further diluted.
The test plots included several species including perennial rye grass, fescue, crabgrass, and several unidentified broad-leaf weeds. As this is a non-selective test, all growing plants (monocot and broadleaf) were evaluated as one species referred to as “turf.” Test plots were 4-ft by 60 ft rectangles with untreated check plots to either side. Evaluations were made at 3 days, 7 days and 14 days by visually inspecting each plot comparing health and vigor of turf (color and mortality) to adjacent untreated controls.

CC(O)C(=O)O (stereo not shown) [Lactic acid, lactic acid]
enhancing the rate of weed control in herbicide compositions: particularly effective
